Data on 10 compounds can be found in ChEMBL document CHEMBL2434868, “Chemical investigation of an antimalarial Chinese medicinal herb Picrorhiza scrophulariiflora” (Bioorg Med Chem Lett, 2013).

SMILES strings stand for the structures.

One data set relates to NFF. Nature of the data set: Cytotoxicity against human NFF cells up to 100 uM after 3 days by SRB assay. It is filed as cell-based. Conditions: 72 h. (In general: The SRB assay estimates cell density from bound dye.)
Consider `CC(=O)OC(C)(C)/C=C/C(=O)[C@](C)(O)[C@H]1[C@H](O)C[C@@]2(C)[C@@H]3CC=C4[C@H](C[C@H](O[C@@H]5O[C@H](CO)[C@@H](O)[C@H](O)[C@H]5O)[C@H](O)C4(C)C)[C@]3(C)CC[C@]12C`, for which the Activity entry was “Non-toxic”.

The subject of another data set is Plasmodium falciparum. Nature of the data set: Antimalarial activity against ring stage of Plasmodium falciparum 3D7 infected in erythrocytes assessed as [3H]-hypoxanthine incorporation after 48 hrs by liquid scintillation counting analysis. It is filed as functional, organism-based.
Conditions: not given
The IC50 is the concentration that inhibits the measured activity by half. Consider `COc1cc(C(=O)O)ccc1O[C@@H]1O[C@H](COC(=O)/C=C/c2ccccc2)[C@@H](O)[C@H](O)[C@H]1O`, for which the half-inhibitory concentration (IC50) was over 25 µM.
With `O=C(/C=C/c1ccccc1)OC[C@H]1O[C@@H](OC[C@@H](O)[C@@H](O)[C@H](O)[C@H](O)CO)[C@H](O)[C@@H](O)[C@@H]1O`, the IC50 was over 25 µM.
The same measure, in the same setting: under `O=C(/C=C/c1ccc(O)c(O)c1)OC[C@H]1O[C@@H](OC[C@@H](O)[C@@H](O)[C@H](O)[C@H](O)CO)[C@H](O)[C@@H](O)[C@@H]1O` stands over 25 µM; under `COc1cc(C(C)=O)ccc1O[C@@H]1O[C@H](COC(=O)/C=C/c2ccc(O)cc2)[C@@H](O)[C@H](O)[C@H]1O`, over 25 µM.
Regarding `CC(=O)c1ccc(O[C@@H]2O[C@H](COC(=O)/C=C/c3ccc(O)cc3)[C@@H](O)[C@H](O)[C@H]2O)cc1`, the IC50 is over 25 µM.
For `COc1cc(/C=C/C(=O)OC[C@H]2O[C@@H](Oc3ccc(C(C)=O)cc3OC)[C@H](O)[C@@H](O)[C@@H]2O)ccc1O`, the IC50 was over 25 µM.
As to `CC(=O)OC(C)(C)CCC(=O)[C@](C)(O)[C@H]1[C@H](O)C[C@@]2(C)[C@@H]3CC=C4[C@H](C[C@H](O[C@@H]5O[C@H](CO)[C@@H](O)[C@H](O)[C@H]5O)[C@H](O)C4(C)C)[C@]3(C)CC[C@]12C`, the IC50 was over 25 µM.
The IC90 is the concentration at which the effect reaches the 90% level. A word on the IC95: it is the concentration needed for an effect of 95%. On to `CC(=O)OC(C)(C)/C=C/C(=O)[C@](C)(O)[C@H]1[C@H](O)C[C@@]2(C)[C@@H]3CC=C4[C@H](C[C@H](O[C@@H]5O[C@H](CO)[C@@H](O)[C@H](O)[C@H]5O)[C@H](O)C4(C)C)[C@]3(C)CC[C@]12C`, for which the IC50 was determined as 8.3 µM, the IC90 came out at 17.3 µM and the IC95 is 23.5 µM.
As to `COc1cc(C(C)=O)ccc1O[C@@H]1O[C@H](COC(=O)/C=C/c2ccccc2)[C@@H](O)[C@H](O)[C@H]1O`, the IC50 was over 25 µM.
`O=C(/C=C/c1ccccc1)OC[C@H]1O[C@@H](O[C@@H]2OC=C[C@H]3[C@H](O)[C@@H]4O[C@]4(CO)[C@@H]23)[C@H](O)[C@@H](O)[C@@H]1O` [PICROSIDE I]: the IC50 is over 25 µM.
